Series [1] deals with skin. Particulars: systemic administration, clinical use; cited from earlier work.
For series [2], the system named is neovasculature of the eye (advanced AMD). In words: Clinical trial of PDT with Talaporfin Sodium and 664 nm laser light in 9 human subjects with advanced AMD. The class given is in vivo. The text has this:
A clinical trial of 9 human subjects with advanced AMD was arranged. The 9 subjects were each treated with PDT using Talaporfin Sodium, and a laser light at 664 nm wavelength as the excitation light source. The Table as provided in FIG. 1 describes the results of and details of the PDT procedures performed on the 9 subjects.

The test system of series [3] is choroidal neovascularization (CNV). Particulars: after re-treatment; cited from earlier work.
For series [4] the test system is unchanged. Particulars: cited from earlier work.
In series [5] the test system is classic CNV. Particulars: 3 months after initial PDT treatment; cited from earlier work.
The test system of series [6] is subfoveal choroidal neovascularization (CNV). Particulars: cases followed for 3 months after a single PDT treatment; cited from earlier work.

As to `CCOC(=O)C1=Cc2c3nc(cc4nc(cc5[n-]c(cc6[n-]c2c(C)c6CC)c(C)c5CC)C(C)=C4CC)[C@@H](C)[C@]13CC.[Cl-].[Cl-].[Sn]` (racemic) [Purlytin], in series [1], the “duration of skin photosensitivity” value was “several weeks”.
Take `Oc1cccc(-c2c3nc(c(-c4cccc(O)c4)c4ccc([nH]4)c(-c4cccc(O)c4)c4nc(c(-c5cccc(O)c5)c5ccc2[nH]5)CC4)C=C3)c1` [Foscan]: the “duration of skin photosensitivity” value in series [1] is recorded as “several weeks”.
In the case of `C=Cc1c(C)c2cc3nc(c(CC(=O)N[C@@H](CC(=O)O)C(=O)O)c4[nH]c(cc5nc(cc1[nH]2)C(C)=C5CC)c(C)c4C(=O)O)[C@@H](CCC(=O)O)[C@@H]3C` [Talaporfin Sodium, mono-L-aspartyl-chlorin e6], in series [2] (most patients of 9 subjects, laser light 664 nm), the “extended period of enhanced neovasculature occlusive effect” value is given as no less than 15 weeks. Besides, in series [2] (subjects 1 and 3, who had leakage causing serious elevation of the retina), the “retina and leakage after treatment” value is “the retina appeared more flat and leakage had apparently ceased”. Further, the “re-opening of treated vessels during subsequent observations” value in series [2] (subjects studied, FIG. 1) is recorded as “no indication of re-opening of vessels”.
For sodium porfimer [Photophrine], the “duration of skin photosensitivity” value in series [1] is given as “up to 6 weeks”.
verteporfin: in series [3], the “leakage activity compared to baseline leakage” value is “appeared to be reduced”. Also, in series [4] (after 1 week), the “subject eyes that maintained CNV closure” value is recorded as 83%. In addition, the eyes showing closure in series [4] (after 5 weeks) was 9%. In series [4] (after 5 weeks, excluding one eye removed from test data), the “eyes showing leakage had recommenced” value is 91%. Besides, in series [5], the “eyes scheduled for retreatment” value was 90.8% and the “eyes with classic CNV present that displayed leakage from classic CNV again” value was 92.8%. Further, the “cases with progression of classic CNV beyond the area of CNV identified before treatment” value in series [6] is given as 51%.

Source of the values: patent US20060229284A1, “Enhanced occlusive effect photodynamic therapy” (priority 2004, published 2006).
